# Measured values from patent US20250099488A1, “ANTI-PARASITE COMPOUNDS” (AUSTRALIAN NATIONAL UNIVERSITY, priority 2022, published 2025).
# Like-named read-outs stand apart in the source and are kept apart here.
# Key:
# asexual P. falciparum = experiment: Plasmodium growth inhibition assay (SYBR Safe), asexual stages; type: cell-based, Plasmodium falciparum; conditions: for Inhibitory effect on proliferation of asexual stages: FIG. 11D, cholesterol in ethanol, DMSO or ethyl acetate, DHEA
# Method: Compounds or solvent controls (DMSO, ethanol, or ethyl acetate) were serially diluted 2-fold across flat-bottom 96-well plates. Complete culture media without compound was used as a negative control. Chloroquine (100-200 nM) {Sigma C6628} was used as a positive control to determine background fluorescence. The parasitaemia of a culture containing predominantly ring stage parasites was counted by Giemsa smear. The parasitaemia was adjusted to 1% by addition of fresh uRBCs, and added to the plate at a final haematocrit of 1%, with 200 μL per well. The plates were incubated at 37° C. under humid microaerophilic conditions. […] Fluorescence was read at 490 nm excitation/520 nm emission on a FLUOstar Optima fluorescence plate reader {BMG Labtech}.
# Growth inhibition data were normalised by subtracting background fluorescence from a no-growth control (high drug concentration or time=0 measurement as specified), and expressed as a percentage of the growth in the negative control (media alone or solvent control) either at the indicated timepoint, or to the highest measurement reached during the assay.
# P. falciparum asexual parasite assays begun with ring-stage parasites at 1% parasitaemia and 1% haematocrit. 200 nM chloroquine (Sigma C6628) was used as a no-growth control. […] 17]; 8 (2):e54974).
# (§1) Growth inhibition data were normalised by subtracting background fluorescence, luminescence, absorbance, or percentage of cells from a no-growth or no-viability control (high drug concentration, no-parasite control, or time=0 measurement as specified), and expressed as a percentage of the growth or cell percentage in the negative control (culture media alone or solvent control) at the indicated timepoint (or to the highest measurement reached during the assay for FIG. 15B).
# [1] = system: P. falciparum gametocytes (stage III-IV); experiment: Gametocyte viability assay (MitoTracker, flow cytometry); type: cell-based, Plasmodium falciparum; conditions: Plasmodium falciparum, read-out: IC50, gametocyte viability
# Source text: Gametocyte assays begun eight days post-invasion (Stage III-IV).
# as §1
# [2] = HEK293 cell viability assay (MTT); type: cell-based, human; conditions: human, 96 hours, FIG. 16H / FIG. 18C, read-out: IC50, HEK293 cytotoxicity
# Method: HEK293 cell viability assays began with 5000 cells per well. 10 μg/mL cycloheximide was used as a no-growth control. Metabolic capacity (indicating viability) was measured by incubation with 0.45 mg/mL methylthiazolyldiphenyl-tetrazolium bromide (MTT; Sigma M2128) for two hours followed by crystal solubilisation in SDS.
# [3] = system: P. falciparum CAM3.II (mutated Kelch-13, resistant); experiment: Ring stage survival assay, resistant strain; type: cell-based, Plasmodium falciparum; conditions: 700 nM for six hours, then 66 hours without drug; for Parasite survival (DNA replication): FIG. 17B
# Source text: (§2) The inventors tested these compounds in a ring stage survival assay, which allows the detection of resistant parasites against this […] drug and is the standard method for investigating resistance to artemisinin and its derivatives (Witkowski B, Menard D, Amaratunga C. Fairhurst R. Ring-stage Survival Assays (RSA) to evaluate the in-vitro and ex-vivo susceptibility of Plasmodium falciparum to artemisinins Procedure. Inst Pasteur du Cambodge—Natl Institutes Heal [Internet]. 2013 Sep. 11 [cited 2022 Jun. 19]; Procedure; available from: https://www.wwarn.org/sites/default/files/INV10-Standard-Operating-Procedure-Ring-Stage-Survival-Assays.pdf). This assay involves a short treatment window against newly-invaded ring stage parasites, followed by removal of drug pressure to mimic the clearance of the drug from plasma. We utilised two parasite strains: an isolate from Cambodia (CAM3.II) with a mutated Kelch-13 conferring resistance, and a genetically modified revertant of this strain (CAM3.IIREV) conferring drug susceptibility (Straimer J, Gnädig N F, Witkowski B, Amaratunga C, Duru V, Ramadani A P, et al. K13-propeller mutations confer artemisinin resistance in Plasmodium falciparum clinical isolates. Science (80-) [Internet]. 2015 Jan. 23 [cited 2022 Jun. 19]; 347(6220):428-31; available from: https://www.science.org/doi/10.1126/science.1260867).
# (§3) Following tight synchronisation, CAM3.II and CAM3.IIREV ring stage parasites (0-3 hours post invasion) at 1% parasitaemia and 2% haematocrit were incubated with 700 nM of compounds or solvent-only controls for exactly six hours, before removing the drug, thoroughly washing in RPMI, and returning to culture conditions for a further 66 hours. Some cells were treated with 700 nM artesunate for 72 hours as a no-growth control. DNA replication (indicating growth) was measured at the specified time using SYBR Safe DNA Gel Stain. Microscope slide smears of each condition were stained with 10% v/v Giemsa and examined under a light microscope (1 000× magnification); with ‘viable’ (morphologically normal) and ‘non-viable’ (morphologically aberrant; vacuolated or pyknotic) parasites distinguished according to standard protocol (Witkowski B, Menard D, Amaratunga C, Fairhurst R. Ring-stage Survival Assays (RSA) to evaluate the in-vitro and ex-vivo susceptibility of Plasmodium falciparum to artemisinins Procedure. Inst Pasteur du Cambodge—Natl Institutes Heal [Internet]. 2013 Sep. 11 [cited 2022 Jun. 19]; Procedure. Available from: https://www.wwam.org/sites/default/files/INV10-Standard-Operating-Procedure-Ring-Stage-Survival-Assays.pdf). Images were captured using a Leica ICC50 camera, with a resolution of 76 nm per pixel.
# [4] = system: P. falciparum CAM3.IIREV (susceptible); experiment: Ring stage survival assay, susceptible revertant strain; type: cell-based, Plasmodium falciparum; conditions: 700 nM for six hours, then 66 hours without drug
# Source text: as §2, §3
# P. berghei liver stages = experiment: P. berghei liver stage growth assay (luciferase) in Huh7 cells; type: cell-based, Plasmodium berghei; conditions: Plasmodium berghei, Huh-7; 48 hours of treatment from sporozoite inoculation, Huh7 cells, FIG. 16A
# Method: (§4) Huh7 cells were seeded at a density of 10 000 cells per well, or 20 000 per collagen-coated coverslip. […] Uninfected wells served as a control for background luminescence. […] Data are presented as a percentage of the size or parasite number of the solvent control to normalize for differences between experiments. For cell images presented in the figure, images were collected under optimal exposure settings to ensure features were visible. Individual cells were cropped from larger images with Fiji ImageJ, and the brightness was adjusted while ensuring that no fluorescence was removed. No other manipulations were performed.
# as §1
# [5] = system: P. berghei liver stage schizonts; experiment: P. berghei liver stage parasite size and number (fluorescence microscopy) in Huh7 cells; type: cell-based, Plasmodium berghei; conditions: 3 μM, 48 hours post-infection, vs DMSO
# Method: as §4
# [6] = system: Toxoplasma gondii tachyzoites; experiment: Toxoplasma growth inhibition assay (tdTomato fluorescence); type: cell-based; conditions: Toxoplasma gondii, 72 h, read-out: IC5 against T. gondii
# Method: Fluorescent Toxoplasma gondii parasites were inoculated into an optical bottom 96-well plate containing confluent human foreskin fibroblast (HFF) host cells at a density of 2000 parasites/well, with a serial dilution of each compound, or media/DMSO alone. Plates were measured daily with a FluoStar Optima fluorescence plate reader at 540 nm excitation/590 nm emission for seven days, and the background fluorescence from the time 0 reading was subtracted from all other measurements.
# Fluorescence was measured daily with a FluoStar Optima fluorescence plate reader for one week, and the background fluorescence from the time 0 reading was subtracted from all other measurements.
# as §1
# [7] = system: human hepatoma cells (Huh7); experiment: Huh7 hepatoma viability assay (CellTiter-Blue); type: cell-based; conditions: 48 hours; effect on cellular integrity / modest cytotoxicity
# Method: Huh7 hepatoma viability assays were conducted in the same manner as the P. berghei assays, with metabolic capacity (indicating viability) measured by incubation with CellTiter-Blue® (Promega) for 3 hours.
# [8] = system: human foreskin fibroblasts (HFF); experiment: HFF growth inhibition assay (SYBR Safe); type: cell-based; conditions: 72 hours, FIG. 16G
# Method: Cells were incubated with a serial dilution of each compound, or media/DMSO alone. The protein synthesis inhibitor cycloheximide (10 μg/mL) was used as a positive control to determine background fluorescence. Approximately 5000 cells were seeded in each well. […] Plates were transferred to a −18° C. freezer. […] Fluorescence was read at 490 nm excitation/520 nm emission on a FLUOstar Optima fluorescence plate reader.
# HFF cell growth inhibition assays began with 5000 cells per well. 10 μg/mL cycloheximide was used as a no-growth control.
# [9] = Plasmodium falciparum, 72 hours, FIG. 18B, read-out: IC50
# [10] = Plasmodium falciparum, 24 hours, starting with ring-stage parasites, FIG. 14B, read-out: IC50
smiles,measurement,setting,value
"CC(C)(C)OOC(C)(C)C [di-ter-butyl peroxide, di-tert-butyl peroxide, reference compound]",IC50,"asexual P. falciparum; 72 hours, FIG. 18B, read-out: IC50",> 25 µM
"C[C@]12CC[C@H](O)CC1=CC[C@@H]1[C@@H]2CC[C@]2(C)C(=O)CC[C@@H]12 [DHEA, 3β-Hydroxyandrost-5-en-17-one, reference compound]",Inhibitory effect on proliferation of asexual stages,asexual P. falciparum,"influences proliferation, although at relatively high concentrations"
same,IC50,asexual P. falciparum; [9],150 µM
"Cc1ncc([N+](=O)[O-])n1CCO [Metronidazole, metronidazole, reference compound]",IC50,"asexual P. falciparum; Example 4, FIG. 20B",almost no effect in the range tested
"COc1cc(NC(C)CCCNC(=O)CCC(=O)O[C@H]2CC[C@@]3(C)C(=CC[C@H]4[C@@H]5CC[C@H]([C@H](C)CCCC(C)C)[C@@]5(C)CC[C@@H]43)C2)c2ncccc2c1 (stereo partly drawn) [C-3-prim, Cholester-3-yl succinate-primaquine amide]",No inhibition of parasite growth up to (concentration),asexual P. falciparum; 24 hours,> 100 µM
same,IC50,asexual P. falciparum; [10],> 200 µM
"COc1cc(NC(C)CCCNC(=O)CCC(=O)OC(C)C)c2ncccc2c1 (stereo not drawn) [prim-link, Propan-2-yl succinate-primaquine amide]",IC50,"[1]; 48 hours of incubation, stage III-IV, FIG. 14C",> 100 µM
same,IC50 at 96 h,[2]; HEK293 cells,13.3 µM
"Cc1ncc([N+](=O)[O-])n1CCOC(=O)CCC(=O)O[C@H]1CC[C@H]2[C@@H]3CC=C4C[C@@H](O)CC[C@]4(C)[C@H]3CC[C@]12C [BC62D, 3β-Hydroxyandrost-5-en-17β-yl succinate-metronidazole diester]",IC50,"asexual P. falciparum; Plasmodium falciparum, Example 4, FIG. 20B, read-out: IC50",24 µM
"CC(C)OC(=O)CCC(=O)O[C@@H]1O[C@@H]2O[C@]3(C)CC[C@H]4[C@H](C)CC[C@@H]([C@H]1C)[C@@]24OO3 [art-link, Propan-2-yl artesunate ester]",Morphology in Giemsa-stained smears,[3],a combination of morphologically normal parasites and morphologically aberrant pyknotic or vacuolated forms
same,Parasite survival (DNA replication),[3],showed a trend to improved efficacy over artesunate
same,Morphology in Giemsa-stained smears,[4],only morphologically aberrant parasites were present
"CC(C)CCC[C@@H](C)[C@H]1CC[C@H]2[C@@H]3CC=C4C[C@@H](OC(=O)CCC(=O)OC(C)C)CC[C@]4(C)[C@H]3CC[C@]12C [C-3-link, 3β-Succinate-(propan-2-yldiester)-cholest-5-ene]",No inhibition of parasite growth up to (concentration),asexual P. falciparum; 24 hours,> 200 µM
same,IC50,asexual P. falciparum; [10],> 200 µM
"COc1cc(NC(C)CCCN)c2ncccc2c1 (stereo not drawn) [primaquine, reference compound]",Hill slope of inhibitory curve,asexual P. falciparum; 24 hours,−1.65
same,Hill slope of inhibitory curve,asexual P. falciparum; 72 hours,−1.48
same,IC10,"asexual P. falciparum; FIG. 8B, Example 2",12 µM
same,IC90,"asexual P. falciparum; Plasmodium falciparum, 24 h",41 µM
same,IC50,"asexual P. falciparum; Plasmodium falciparum, 72 h",3.2 µM
same,IC50,[1]; 48 h,63.5 µM
same,IC50,P. berghei liver stages,2.9 µM
same,Smaller parasite size (reduction),[5],61%
same,IC50,[6],9.7 µM
same,IC50 at 96 h,[2],10.6 µM
"CC(C)CCC[C@@H](C)[C@H]1CC[C@H]2[C@@H]3CC=C4C[C@@H](O)CC[C@]4(C)[C@H]3CC[C@]12C [cholesterol, Cholesterol, reference compound]",Inhibitory effect on proliferation of asexual stages,asexual P. falciparum,No inhibitory effect could be detected in the concentration range being used
same,IC50,asexual P. falciparum; [9],> 400 µM
CC1CCC2C(C)C(OC(=O)CCC(=O)OC3CCC4C5CC=C6CC(O)CCC6(C)C5CCC34C)OC3OC4(C)CCC1C32OO4 (stereo not drawn) [PAYb076a],Effect of steroid-artesunate conjugates on proliferation,"asexual P. falciparum; 72 hrs, FIG. 13B/13C",better activity than coupling via C3
"CC(C)OC(=O)CCC(=O)O[C@H]1CC[C@H]2[C@@H]3CC=C4C[C@@H](O)CC[C@]4(C)[C@H]3CC[C@]12C [C-17-link, 3β-Hydroxyandrost-5-en-17β-yl succinate-propan-2-yl diester]",IC50,[1]; 48 h,> 100 µM
same,Concentration at which cytotoxic effect was detected,[7],> 30 µM
same,"IC50, fibroblast growth",[8],no notable inhibition was observed
same,IC50 at 96 h,[2],43.6 µM
same,Parasite survival (DNA replication),[3],did not significantly impact on the growth of either strain
same,Parasite survival / growth inhibition (DNA replication),[4]; FIG. 17B,did not significantly impact on the growth of either strain
"C[C@H]1[C@H](OC(=O)CCC(=O)O[C@H]2CC[C@H]3[C@@H]4CC=C5C[C@@H](O)CC[C@]5(C)[C@H]4CC[C@]23C)O[C@@H]2O[C@]3(C)CC[C@H]4[C@H](C)CC[C@@H]1[C@@]24OO3 [C-17-art, 3β-Hydroxyandrost-5-en-17β-yl succinate-artesunate ester]",Morphology in Giemsa-stained smears,[3],"only aberrant, non-viable parasites were visible"
same,Parasite survival (DNA replication),[3],kills all cells
same,Morphology in Giemsa-stained smears,[4],only morphologically aberrant parasites were present
